Columns and labels:
Format in all cases: in vivo, Wistar albino rats
[1] = system: Dox induced cardiac toxicity/remodeling; assay: Blood analysis: serum biochemical levels (auto analyzer/ELISA kits) in doxorubicin induced cardiac toxicity/remodelling rats
Excerpt: Zinc Quantification, rat high sensitivity C-Reactive Protein, Fibrinogen invitro, IL-6, IL-10, Renin, Ang II, and CKMB Enzyme linked Immunosorbent Assay (ELISA) rat kits are procured from Abcam, Cambridge, United Kingdom.
Sufficient experimental animals Wistar albino rats approximately average weight of 170±20 g are obtained. The protocol is approved by Institutional Animal Ethical Committee, all animals are acclimatized for 7 days standard laboratory condition of 12-hr light/dark cycle, maintained at temperature of 22±2° C. with relative humidity of 50±5% in department of Biochemistry, Faculty of Science.
(§1) All the animals are randomly divided into 4 groups with six animals in each: 1) Normal control (NC), fed with standard semi purified diet along with normal drinking water, 2) Zam control (ZC) fed with standard semi purified diet along with Zam water p.o at libitum, 3) Doxorubicin or Dox control (DC), animals are injected with Dox (1 mg/kg bw) i.p. on first day of protocol fed with standard semi purified diet along with normal drinking water and 4) Dox+Zam (DZ) group injected with Dox (1 mg/kg bw) i.p. on first day of protocol, and treated with Zam water p.o at libitum, for 28 days. All the animals are on semi purified diet throughout the study period. Body weight of rats are recorded weekly and consumption of food and water is measured daily basis.
(§2) Physiological and behavioural changes are monitored in experimental rats for entire period of protocol. The protocol is terminated on 29th day, animals are sedated with diethyl ether for further process of organ harvesting and blood collection. Abdominal artery, punctured and blood is collected in centrifugal tubes approximately 3 ml/100 g body weight, allowed to clot at laboratory temperature for 30 minutes, centrifuged at 4° C. for 15 minutes at 4500 rpm. The supernatant serum, transferred to 1.5 ml tubes and kept at −80° C. for further analysis. Harvested heart and kidneys are weight, preserved in 10% phosphate buffered formaldehyde for histopathological analysis.
The serum biochemical levels of Zinc, Fibrinogen, Renin, IL-10,11-6, CRP, Ang II, and CKMB are analyzed by standard auto analyzer kits-Zinc quantification kit, Rat Fibrinogen ELISA kit, Rat Renin ELISA kit, IL-10 ELISA kit, I1-6 ELISA kit, CRP ELISA kit, Ang II ELISA kit, and CKMB ELISA kit from Abcam Cambridge, United Kingdom.

[2] = system: Gut microbiota; assay: Gut microbiota analysis: 16S metagenomic analysis of stool DNA; conditions: DC group: Dox 1 mg/kg i.p., normal drinking water
Description: All the animals are randomly divided into 4 groups with six animals in each: 1) Normal control (NC), fed with standard semi purified diet along with normal drinking water, 2) Zam control (ZC) fed with standard semi purified diet along with Zam water p.o at libitum, 3) Doxorubicin or Dox control (DC), animals are injected with Dox (1 mg/kg bw) i.p. on first day of protocol fed with standard semi purified diet along with normal drinking water and 4) Dox+Zam (DZ) group injected with Dox (1 mg/kg bw) i.p. on first day of protocol, and treated with Zam water p.o at libitum, for 28 days. All the animals are on semi purified diet throughout the study period. Body weight of rats are recorded weekly and consumption of food and water is measured daily basis. Stool samples of rats are used to isolate the DNA by […] kit as per manufacturer's instructions. Briefly 250-300 mg of stool samples collected from lower intestine, in 2 ml tube weighted and thawed on ice. ASL buffer (1.5 ml) is added, vortexed for 3 minutes followed by incubation at 80° C. for 15 minutes. The incubated tubes are tapped every four minute and centrifuge at 14000 rpm for 15 minutes at room temperature. EX tablet is added to 1.5-2.0 ml of supernatant, followed by centrifugation for 5 minutes at 15000 rpm. The procedure continued with the addition of proteinase K (15 μl) and AL buffer, incubated for 10 minutes at 70° C. Approximately 300 μl of absolute alcohol or ethanol is added, centrifuged for 1 minute at 12000 rpm with addition of 500 μl of AW1 buffer to column above and centrifuge at 14000 rpm for 1 minute. The filtrate in collection tube is discarded, finally DNA is eluted and is evaluated on 1% agarose gel. The isolated sample of DNA is forwarded for 16S metagenomic analysis.

[3] = system: heart; assay: Histopathological analysis of heart (H&E); conditions: DC group: Dox 1 mg/kg i.p., normal drinking water
Description: as §1
as §2, with “Harvested heart and kidneys are weight, preserved in 10% phosphate buffered formaldehyde for histopathological analysis.” left out

[4] = system: kidneys; assay: Histopathological analysis of kidney (H&E); conditions: DC group: Dox 1 mg/kg i.p., normal drinking water
Description: as §1
as §2, with “Harvested heart and kidneys are weight, preserved in 10% phosphate buffered formaldehyde for histopathological analysis.” left out

[5] = DC group: Dox 1 mg/kg i.p., normal drinking water

COc1cccc2c1C(=O)c1c(O)c3c(c(O)c1C2=O)C[C@@](O)(C(=O)CO)C[C@@H]3O[C@H]1C[C@H](N)[C@H](O)[C@H](C)O1 [Doxorubicin]
Plasma CRP level ([1]; DC group: Dox 1 mg/kg bw i.p. day 1, normal drinking water): 13.40 ± 2.66 mg/dL
serum Zinc level ([1]; DC group: Dox 1 mg/kg bw i.p. day 1, normal drinking water, day 29): 0.55 ± 0.12 µg/mL
Ang II level [1, 5]: 16.00 ± 2.26 nmol/mL/min
CKMB level [1, 5]: 121.8±3.12 U/L
Fibrinogen concentration [1, 5]: 4.37±0.74
IL-6 [1, 5]: 3.36±1.32
plasma renin level [1, 5]: 1.02 ± 0.38 ng/mL/h
IL-10 ([1]; DC group: Dox single dose 1 mg/kg body weight): 3.73 ± 0.50 pg/mL
Firmicutes population [2]: 33%
abundance of Bacteroidetes [2]: 34%
abundance of Muribaculaceae [2]: 26%
abundance of Proteobacteria [2]: 17%
abundance of Romboutsia [2]: 2%
histopathological evaluation of cardiac tissue [3]: focal areas of myocardial cell degeneration with increased intracellular spaces, high fat deposits, inflammatory cell infiltration and disrupted tissue orientation
histopathology of kidneys [4]: severe pathological lesions with tubular degeneration, tubular cast and tubular necrosis with eosinophilic infiltration
